Assay results taken from article PMC8230315, “A Pan-Inhibitor for Protein Arginine Methyltransferase Family Enzymes” (Biomolecules, 2021).

Columns and labels:
[1] = molecular target: T1, TbPRMT7 (Trypanosoma brucei brucei, UniProt Q582G4); test: Selectivity SAHH-coupled fluorescence assay, TbPRMT7; type: biochemical; details: at 1.2 μM
T1 construct: made in house
Excerpt: (§1) We chose the top four potent compounds (6b and 6l–n) to investigate their selectivities against several in-house methyltransferases including protein arginine methyltransferase TbPRMT7, two members of the protein lysine methyltransferase PKMT (G9a and SETD7), protein N-terminal methyltransferase 1 (NTMT1), and a small molecule methyltransferase nicotinamide N-methyltransferase (NNMT), all of which have a SAM binding site.
(§2) A fluorescence-based SAHH-coupled assay was applied to study the effect of the compound on methyltransferase activity of PRMT7, NTMT1, SETD7, G9a, NNMT, and SAHH. For PRMT7, the assay was performed in a final well volume of 100 μL: 25 mM Tris (pH = 7.5), 50 mM KCl, 0.01% Triton X-100, 5 μM SAHH, 0.2 μM PRMT7, 3 μM AdoMet, and 15 μM ThioGlo1. After incubation for 10 min with the inhibitor, reactions were initiated by the addition of 60 μM H4-21 peptide, and the reaction was monitored for 15 min. […] After incubation for 10 min with the inhibitor, reactions were initiated by the addition of 0.5 μM GPKRIA peptide, and the reaction was monitored for 15 min. […] After incubation for 10 min with the inhibitor, reactions were initiated by the addition of 90 μM H3-21 peptide, and the reaction was monitored for 15 min. […] After incubation for 10 min with the inhibitor, reactions were initiated by the addition of 10 μM nicotinamide, and the reaction was monitored for 18 min. […]

[2] = system: NNMT; test: Selectivity SAHH-coupled fluorescence assay, NNMT; type: biochemical
Excerpt: as §1, §2

[3] = system: histone H4 Arg3 asymmetric dimethylation (H4R3me2a); test: Cellular arginine methylation assay, Western blot in HEK293 cells; type: cell-based; details: 48 h, at 10 µM
Experimental: Furthermore, we proceeded to investigate the inhibitory effects of II757 on the methylation level of histone H4 Arg3 via Western blotting to check its cellular inhibition. […] Future studies will focus on tethering this moiety with reported substrate-competitive inhibitors to enhance the selectivity and cellular potency.
HEK293 cell line was cultured in DMEM media supplemented with 10% FBS and 1% antibiotic-antimycotic (Gibco, Fisher, Waltham, MA, USA). The cells were maintained in a tissue culture dish (Falcon 353003, Fisher, Waltham, MA, USA) until seeding at a density of 0.03 × 10^6 cells/mL into a 24-well tissue culture plate (Falcon 353047, Fisher, Waltham, MA, USA). The cells were incubated overnight at 37 °C in 5% CO2 with the lid on. They were then treated with the inhibitors at different concentrations for 48 h. […]
The protein was quantified using BCA (Pierce BCA Protein Assay Kit, 23225, Fisher, Waltham, MA, USA) and equal amounts of protein were resolved by SDS-PAGE electrophoresis and blotted on Transfer membrane (Immun-Blot PVDF Membranes, Bio-Rad, Hercules, CA, USA Bio-Rad, 1620177). […] The membranes were washed three times with 1X TBST for 5 min each, and the proteins were detected by ECL (Bio-Rad, Hercules, CA, USA).

[4] = molecular target: T2, PRMT5 (C449S)/MEP50 (Homo sapiens, UniProt O14744, C449S); test: HotSpot radioisotope 3H-AdoMet methyltransferase assay, PRMT5 (C449S)/MEP50; type: biochemical
T2 construct: purchased Reaction Biology
T2 sequence (O14744 whole entry C449S): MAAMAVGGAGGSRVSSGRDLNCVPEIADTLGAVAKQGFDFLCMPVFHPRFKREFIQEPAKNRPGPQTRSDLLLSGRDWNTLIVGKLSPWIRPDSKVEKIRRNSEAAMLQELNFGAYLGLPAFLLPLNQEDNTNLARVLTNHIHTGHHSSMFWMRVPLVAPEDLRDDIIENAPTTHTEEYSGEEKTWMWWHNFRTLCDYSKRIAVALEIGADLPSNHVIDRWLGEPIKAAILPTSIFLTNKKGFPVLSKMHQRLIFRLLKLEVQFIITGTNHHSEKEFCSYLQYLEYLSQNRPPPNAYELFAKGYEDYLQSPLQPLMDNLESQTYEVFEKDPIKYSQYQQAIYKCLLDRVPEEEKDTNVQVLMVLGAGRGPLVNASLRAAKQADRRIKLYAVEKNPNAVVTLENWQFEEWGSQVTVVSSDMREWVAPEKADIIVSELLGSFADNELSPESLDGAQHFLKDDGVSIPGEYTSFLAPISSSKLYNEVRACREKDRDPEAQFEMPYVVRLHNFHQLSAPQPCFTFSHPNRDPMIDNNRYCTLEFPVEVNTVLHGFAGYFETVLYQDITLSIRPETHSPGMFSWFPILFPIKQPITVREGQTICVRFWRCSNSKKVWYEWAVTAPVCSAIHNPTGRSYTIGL
T2 sequence (Q9BQA1 whole entry partner): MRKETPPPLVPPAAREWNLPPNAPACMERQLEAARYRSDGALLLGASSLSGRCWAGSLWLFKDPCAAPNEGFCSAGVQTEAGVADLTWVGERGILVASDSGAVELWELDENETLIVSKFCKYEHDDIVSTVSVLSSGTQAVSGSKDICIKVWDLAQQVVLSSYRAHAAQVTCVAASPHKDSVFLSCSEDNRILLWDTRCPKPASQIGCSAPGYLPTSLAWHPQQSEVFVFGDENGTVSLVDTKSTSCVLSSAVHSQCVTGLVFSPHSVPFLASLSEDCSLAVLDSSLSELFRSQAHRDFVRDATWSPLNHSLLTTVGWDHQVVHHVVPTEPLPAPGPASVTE
Experimental: Future studies will focus on obtaining structural information of II757 bound to PRMTs to inform how to connect to a substrate portion to increase both potency and selectivity for each PRMT.
Figure 6 Selectivity of II757 against the panel of PRMTs. II757 was tested in 10 doses with threefold serial dilution in the HotSpot methyltransferase assay at reaction biology. TEXT PRINTED IN THE PICTURE: II757: IC50 (nM) PRMT1: 16.4; IC50 (nM) PRMT3: 321; IC50 (nM) PRMT4: 5.05; IC50 (nM) PRMT5/MEP50 Complex: 18.2; IC50 (nM) PRMT5 (C449S)/MEP50: 36.6; IC50 (nM) PRMT6: 30.5; IC50 (nM) PRMT7: 555; IC50 (nM) PRMT8: 32.1

T1 sequence (Q582G4 whole entry): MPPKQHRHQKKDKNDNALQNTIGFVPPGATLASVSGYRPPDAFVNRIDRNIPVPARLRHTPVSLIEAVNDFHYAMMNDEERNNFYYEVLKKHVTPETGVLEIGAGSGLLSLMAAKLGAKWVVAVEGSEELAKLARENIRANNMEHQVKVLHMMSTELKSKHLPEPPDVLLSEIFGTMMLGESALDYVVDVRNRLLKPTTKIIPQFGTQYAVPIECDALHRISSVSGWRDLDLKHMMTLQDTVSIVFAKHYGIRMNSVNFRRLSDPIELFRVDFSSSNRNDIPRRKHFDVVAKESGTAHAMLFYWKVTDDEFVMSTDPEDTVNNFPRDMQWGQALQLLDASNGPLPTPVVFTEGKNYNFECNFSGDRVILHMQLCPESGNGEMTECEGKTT

In the case of N=C(NCCCSC[C@H]1O[C@@H](n2cnc3c(N)ncnc32)[C@H](O)[C@@H]1O)Nc1cccc(Br)c1 [Compound 6l, 1-(3-((((2S,3S,4R,5R)-5-(6-amino-9H-purin-9-yl)-3,4-dihydroxytetrahydrofuran-2-yl)methyl)thio)propyl)-3-(3-bromophenyl)guanidine], the “activity against PRMT7” value [1] is reported as “about 30%”, the “selectivity over NNMT” value [2] is reported as “over 1000 fold” and the H4R3me2a level [3] is reported as “decrease”. For the same molecule, the IC50 [4] was 36.6 nM.
